In article PMC11923874, “Integration of Phytomelatonin Signaling With Jasmonic Acid in Wound‐induced Adventitious Root Regeneration” (Advanced Science, 2025) one finds Kd data, which are given here for one compound.

One assay deals with T1, SlPMTR1.
T1 construct: 6xHis-MBP-SlPMTR1-GFP fusion, pMAL-c2, E. coli Rosetta (DE3), Ni-NTA purified; seven-transmembrane protein; native length 300 residues (fragments 1-134 and 135-300); tags kept
Description: microscale thermophoresis (GFP fusion). The class given is binding, Solanum lycopersicum. The conditions noted are these: 22 °C, 30 min incubation; His-MBP-GFP fusion protein at 1 mg/ml. For orientation: MST reads how a fluorescent partner responds to local heating, with and without ligand.

A further assay deals with T2, SlPMTR2 (Solanum lycopersicum, UniProt A0A3Q7GXJ6).
T2 construct: gene LOC101260652; 6xHis-MBP-SlPMTR2-GFP fusion, pMAL-c2, E. coli Rosetta (DE3), Ni-NTA purified; seven-transmembrane protein; native length 309 residues (fragments 1-140 and 141-309); tags kept
T2 sequence (A0A3Q7GXJ6 1-309): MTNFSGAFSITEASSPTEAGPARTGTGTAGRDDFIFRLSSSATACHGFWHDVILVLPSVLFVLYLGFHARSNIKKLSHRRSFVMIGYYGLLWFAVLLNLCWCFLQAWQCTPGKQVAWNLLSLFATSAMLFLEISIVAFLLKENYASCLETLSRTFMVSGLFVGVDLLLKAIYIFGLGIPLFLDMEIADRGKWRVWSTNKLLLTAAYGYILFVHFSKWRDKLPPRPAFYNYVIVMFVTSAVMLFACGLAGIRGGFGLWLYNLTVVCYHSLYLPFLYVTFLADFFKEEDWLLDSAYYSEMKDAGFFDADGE
Description: microscale thermophoresis (GFP fusion). In kind it is binding.

Regarding `COc1ccc2[nH]cc(CCNC(C)=O)c2c1` [melatonin], the Kd (usually a measure of binding affinity in units of concentration) at SlPMTR1 was determined as 50.7 nM; on SlPMTR2 it was 419 nM.
